Key:
giardia = details: cited from earlier work
[1] = system: Giardia duodenalis trophozoites; experiment: Resazurin reduction assay (Example 3); assay type: cell-based; details: 42 hours, then 6 hours with Alamarblue
Procedure: Giardia trophozoites were grown until confluent. The media was replaced with fresh media and they were cold shocked for 40 minutes (as above). Cells were diluted to a concentration of ˜500 000 cells/ml and 100 μl were added to each well of the assay plate (except media only control). The assay was incubated in an anaerobic environment (candle jar) for 42 hours at 37° C. […] After incubation the absorbance of each sample was read at 570 and 630 nm. The percent reduction of resazurin (Alamarblue™) was calculated and data was analysed with GraphPad Prism v6 software. Assay set-up: the assay was performed in 96 well plates in a total volume of 200 μl. 100 μl of NCL812 or NCL062 (concentration of 25.6 mg/ml in DMSO) or metronidazole (concentration 5 mg/ml in DMSO) stock was added to 9.9 ml of TYI-S-33 medium, then serially diluted 1:2 in the same medium. Cells were added as above.

[2] = system: Giardia duodenalis (strain WB trophozoites); experiment: Giardia adherence assay; assay type: cell-based; details: exposed for 5 hours
Procedure: Giardia strain WB was grown until confluent (grown and maintained in TYI-S-33 medium with 10% foetal bovine serum). For the assay, media of a confluent culture was replaced with fresh TYI-S-33 medium. Cultures were then cold shocked (on ice) for 40 minutes to detach trophozoites. The cell density of the cultures was adjusted to 1×10^6 cells/ml and 1 ml was added to each well of a 24 well plate already containing 1 ml of diluted compounds (see below). […] After incubation the coverslips were removed, air-dried and stained with Diff-Quik (a Romanowski stain variant). Coverslips were mounted onto glass slides using polymount. Images at 10× magnification were taken at 5 random locations per coverslip. […] Stock solutions of compounds were prepared in DMSO at 25.6 mg/ml. Compounds were diluted 1:100 in TYI-S-33 medium. A 1:2 serial dilution was then performed in TYI-S-33 medium in 24 well plates.

[3] = system: T. brucei procyclic stage; experiment: T. brucei screening (alamar blue); assay type: cell-based, Trypanosoma brucei; details: for T. brucei SI: GI50 of macrophages divided by IC50 of parasites
Procedure: T. brucei screening. Procyclic promastigotes from exponentially growing cells maintained SDM-79 medium were used in all assays. Compounds were initially screened at 10 μM for activity. Compounds were diluted in culture media to a concentration of 20 μM and added to a 96 well plate, after addition of promastigotes (final concentration 4×10^5 cells/ml) compound concentration was 10 μM. Cells were incubated for 48 hrs at 27° C. before the addition of alamar blue and fluorescence measurement as described above. […] Compounds were serially diluted in thirds in culture media resulting in final concentrations ranging from 0.004-10 μM. Promastigotes were added at a final concentration of 4×10^5 cells/ml. Cells were incubated at 27° C. for 48 hours before addition of alamar blue. In addition promastigotes, at a concentration of 8×10^5 were exposed to NCL026 for 1.5 hours before removal of the drug via centrifugation at 5000 rpm for 7 minutes and resuspension of cells in culture media. Cells were incubated for 96 hours at 27° C. and observed daily for metabolic activity (alamar blue assay) and morphological changes. A control culture was exposed to DMSO instead of NCL026.

[4] = system: Mouse macrophages (RAW 264.7); experiment: Cell toxicity assay (WST-1); assay type: cell-based; details: RAW 264.7, 24 hours, read-out: GI50 macrophage
Procedure: (§1) Cell toxicity assays. Mouse macrophages (RAW 264.7) were grown in RPM11640 media supplemented with L-glutamine and 10% foetal calf serum. Cells were trypsanised when 80% confluent and subcultured every 3-4 days. For cytotoxicity assays cells were diluted to a final cell concentration of 2×10^4 cells/ml and 198 μl added to each well of a 96 well plate. Cells were incubated in a humidified incubator for 2 hours at 37° C. 5% CO2 before the addition of NCL compounds (2 μl/well, previously diluted in DMSO). Campothecin, triton X and DMSO only were used as controls. Cells were exposed to the compounds for 24 hours. The metabolic activity of the cells was determined using the WST-1 assay system (Roche Life Science). The supernatant was removed, 100 μl of PBS with 10% WST-1 was added to each well and incubated for 1 hr before reading absorbance at 450 nm. The selectivity index of the compounds was determined by dividing the IC50 of macrophages by the IC50 against parasites. IC50 was determined via graphpad prism software.

[5] = system: Leishmania donovani promastigotes; experiment: L. donovani screening (Alamarblue); assay type: cell-based; details: for IC50: 72 hours; for L. donovani SI: GI50 of macrophages divided by IC50 of parasites
Procedure: L. donovani Screening. Procyclic promastigotes from exponentially growing cultures maintained in DME-L+ Bob additions were used for all assays. Compounds were initially screened for activity at 10 μM. Compounds were diluted in culture media to a […] in 96 well plates. Promastigotes were diluted to a density of ˜8×10^5 cells/ml then added to the assay plate resulting in a final cell density of 4×10^5 cells/ml. in 96 well plates. Cells were incubated for 96 hrs at 27° C. before the addition of Alamarblue (thermofisher). Fluorescence was read at excitation 530 nm and Emission 590 nm. […] Compounds were serially diluted in thirds, in a 96 well plate, in cell growth media so that concentrations ranged from 0.005 to 10 μM and promastigotes added to a final concentration of 1×10^6 cells/ml. Cells were incubated at 27° C. for 72 hours before the addition of alamar blue. Fluorescence was measured as above.

[6] = Exposure in male Swiss outbred mice following IV administration; assay type: in vivo; details: IV 5 mg/kg; for Apparent t1/2: plasma, value marked b is an approximation; for AUC0-inf / Plasma CL / Plasma Vss: values marked a, b are approximations
Procedure: The systemic exposures of NCL026, NCL195, NCL259 and NCL812 were studied in nonfasted male Swiss outbred mice weighing 26.2-32.1 g. Mice had access to food and water ad libitum throughout the pre- and post-dose sampling period. Each compound was administered IV via a bolus injection into the tail vein (vehicle 20% (v/v) DMSO in PEG400, 1 mL/kg dose volume, n=8 mice per compound). […] A maximum of two samples were obtained from each mouse, with samples being taken either via submandibular bleed (approximately 120 μL; conscious sampling) or terminal cardiac puncture (0.6 mL; while mice were anaesthetised using inhaled Isoflurane). No urine samples were collected as mice were housed in bedded cages during the study. Blood was collected directly into polypropylene Eppendorf tubes containing heparin as anticoagulant, and stabilisation cocktail (containing Complete® (a protease inhibitor cocktail with EDTA) and potassium fluoride) to minimise the potential for ex vivo degradation of the test compounds in blood/plasma samples. Once collected, blood samples were centrifuged immediately, supernatant plasma was removed, and stored at −80° C. until analysis by LC-MS using methods standard in the art. Each compound was administered in a vehicle composed of 20% (v/v) DMSO in PEG400. Formulations were prepared by dissolving the compounds in DMSO prior to addition of PEG400. Formulations were not filtered prior to dosing and were administered to mice within 2.5 h of preparation. […] The dose administered to each mouse was calculated on the basis of the measured concentration in the IV formulation, the dose volume and individual mouse body weight. Plasma concentration versus time data were analysed using non-compartmental methods (WinNonlin Version 6.3.0.395). Standard calculations for each pharmacokinetic parameter were calculated using standard methods in the art.

[7] = system: Trypanosoma cruzi (Tulahuen trypomastigotes expressing β-galactosidase, in L6 cells); experiment: In vitro T. cruzi assay for determination of IC50; assay type: cell-based; details: 96 h incubation
Procedure: The T. cruzi assay uses Tulahuen trypomastigotes expressing the β-galactosidase gene. The parasites were maintained in vitro by serial passage in L6 cells. […] Extracellular trypomastigotes were then removed and NCL compounds were added in seven-point serial dilutions performed in triplicate. Benznidazole (Epichem Pty Ltd.) was included as a control. […] After 4-6 h, a colour change following catabolisation of the reagent by viable T. cruzi was observed and absorbance was read at 530 nm using a Dynex microplate reader. […] For each compound, % inhibition values were used to generate a standard curve from which the IC50 was calculated. Each assay was performed at least twice, and the average was used.

[8] = Exposure of NCL195 in male Swiss outbred mice following IP administration; assay type: in vivo
Procedure: The formulation was prepared by dissolving solid NCL195 in DMSO (to 20% (v/v) of the final volume) before adding PEG400, yielding a clear yellow solution that was dosed to mice within 30 minutes of preparation. The measured concentration of NCL195 in the final formulation was 21.9 mg/mL, resulting in a mean administered dose of 43 mg/kg. Following administration, blood samples were collected up to 24 h post-dose (n=2 mice per time point). A maximum of two samples were obtained from each mouse, with samples being taken either via submandibular bleed (approximately 120 μL; conscious sampling) or terminal cardiac puncture (0.6 mL; while mice were anaesthetised using inhaled Isoflurane). No urine samples were collected as mice were housed in bedded cages during the study. Blood was collected directly into polypropylene Eppendorf tubes containing heparin as anticoagulant and stabilisation cocktail (containing Complete® (a protease inhibitor cocktail), potassium fluoride and EDTA) to minimise the potential for ex vivo degradation of NCL195 in blood/plasma samples. Once collected, blood samples were centrifuged immediately, supernatant plasma was removed, and stored in −20° C. until analysis by LCMS using standard methods in the art.

[9] = Cell toxicity assay (WST-1); assay type: cell-based, mouse; details: mouse, RAW 264.7 macrophages, RAW 264.7, 24 hours, read-out: GI50 macrophage
Procedure: as §1

| Structure (SMILES) | IC50 ([3]; 48 hours) [nM] | T. brucei SI [3] | GI50 [4] [nM] | IC50 [5] [nM] | L. donovani SI [5] | Apparent t1/2 [6] [h] | AUC0-inf [6] [µM·h] | Plasma CL [6] [mL/min/kg] | Plasma Vss [6] [L/kg] | other results |
| --- | --- | --- | --- | --- | --- | --- | --- | --- | --- | --- |
| Cc1ncc([N+](=O)[O-])n1CCO [metronidazole, reference compound] |  |  |  |  |  |  |  |  |  | median efficacy (giardia; giardia treatment): approximately 89%; giardia curative rate (clearance of the protozoan) (giardia; human adult and paediatric patients, 5-10 days, reported as low as): ≥ 60%; metabolic activity of the trophozoites (percentage of reduction of resazurin) [1]: reduction in the metabolic activity; number of adherent trophozoites [2]: significant decreases |
| Cl.N=C(NN=Cc1ccc(SC(F)(F)F)cc1)NN=Cc1ccc(SC(F)(F)F)cc1 [NCL166] |  |  | 9460 ± 50 | 3230 ± 1000 | 2.78 |  |  |  |  |  |
| CC(=O)Oc1ccccc1C(=O)Nc1ncc([N+](=O)[O-])s1 [nitazoxanide] |  |  |  |  |  |  |  |  |  | overall response rate (clearance of the protozoan) (giardia; giardia): 75% |
| N#Cc1cccc(C=NNC(=N)NN=Cc2cccc(C#N)c2)c1 [NCL026] | 1700 | 5.71 | 9600 ± 990 | 2500 ± 130 | 3.84 | 1.5 | 2.5 | 100.6 | 6.9 | reduction of metabolic activity / inhibitory effect on T. brucei ([3]; 10 μM, 48 hrs): greatest inhibitory effect; IC50 ([3]; 48 hours, listed as NCL 026): 1680 ± 630 nM; IC50 [7]: 1400 nM |

Now from value to molecule, other results behind:

| IC50 ([3]; 48 hours) [nM] | Structure (SMILES) | T. brucei SI [3] | GI50 [4] [nM] | IC50 [5] [nM] | L. donovani SI [5] | Apparent t1/2 [6] [h] | AUC0-inf [6] [µM·h] | Plasma CL [6] [mL/min/kg] | Plasma Vss [6] [L/kg] | other results |
| --- | --- | --- | --- | --- | --- | --- | --- | --- | --- | --- |
| 1400 | CN(C)c1ccc(C=NNC(=N)NN=Cc2ccc(N(C)C)cc2O)c(O)c1 [NCL171] | relatively selective | 12500 ± 3610 |  |  |  |  |  |  | IC50 ([3]; 48 hours, listed as NCL 171): 1370 ± 30 nM; T. brucei SI ([3]; listed as NCL 171): 9.14 |
| 1460 ± 760 | Cc1ccc(/C=N/Nc2cc(N/N=C/c3ccc(C)cc3)nc(N)n2)cc1 [NCL195, 4,6-bis(2-((E)-4-methylbenzylidene)hydrazinyl)pyrimidin-2-amine] | 3.79 |  |  |  | 2.4 | 12.5 | 16.3 | 2.6 | IC50 ([3]; Trypanosoma brucei, 48 h): 1500 nM; absorption after dosing ([8]; IP, 43 mg/kg): rapidly absorbed; adverse reactions or compound-related side effects ([8]; IP, 43 mg/kg): No adverse reactions or compound-related side effects; duration of exposure at a plasma concentration >8 μg/mL ([8]; extrapolated to IP 100 mg/kg, assuming dose proportionality): at least 7.5 hours; GI50 at 24 h [9]: 5780 ± 330 nM; inhibition at 10 µM ([5]; Leishmania donovani, 10 μM, 96 hrs, read-out: reduction of metabolic activity / inhibition of L. donovani): 100% |
